Assay results reported in patent US9238684B2, “SPANX-B polypeptides and their use” (The United States of America, as represented by the …, priority 2009, dated 2016).

What was measured:
[1] = tested on: SPANX-B-specific CD4^+ T cell lines; experiment: IFNγ secretion (ELISA) by CD4+ T cell lines stimulated with antigen-pulsed autologous DCs; type: cell-based, human; conditions: for IFNγ secretion by SPANX-B-specific CD4+ T cell lines, fine mapping of the epitope: autologous DCs pulsed with peptide, lines generated to SPANX-B protein, Pep-1 or Pep-G1, FIG. 3D; for IFNγ secretion by CD4+ T cell lines on stimulation with pulsed DCs: CD4+ T cell lines generated with SPANX-B protein-treated autologous DCs, FIGS. 3A-C; for IFNγ secretion by SPANX-B-specific CD4+ T cell line: irradiated mature DCs pulsed with 1 μg/ml peptide, FIG. 3A; for generation of SPANX-B-specific CD4+ T cell lines using the peptide: lines recognized DCs incubated with SPANX-B protein dose-dependently, FIGS. 3C, 3D
Procedure: T cell stimulation: To generate CD4^+ T cell lines, CD4^+ T cells (2×10^6) were stimulated with autologous DC pulsed with either SPANX-B protein (2 μg/mL), or with SPANX-B peptides (10 μg/mL) in the presence of IL-2 (20 U/mL) for seven days. T cells were re-stimulated once every week two times. To generate CD8^+ CTL lines, 2×10^6 CD8^+ T cells were stimulated with autologous DC pulsed with either SPANX-B protein (2 μg/mL) and SPANX-B peptides (10 μg/mL) in the presence of IL-2 (20 U/mL) and IL-15 (10 ng/mL) for seven days. T cells were weekly restimulated with peptide-loaded DCs for several times. To test antigen-specific activity of CD4^+ T cell lines, all experiments were performed in triplicates in 96-well plates with 1×10^5 CD4^+ T cells/well. […] T cell activity was judged by IFNγ secretion in culture supernatants by ELISA after 48 hours incubation (see below and Schiavo et al., Blood 107(12):4597-605, 2006). For most experiments, unless specified, 1:5 Target:Effector ratio was used.
Detection of IFNγ by ELISA: ELISA was performed as described elsewhere (Schiavo et al., Blood 107(12):4597-605, 2006). Briefly, 96-well flat-bottom plates were coated with 2 μg/mL of anti-human IFNγ antibody (BD pharmingen, San Jose, Calif.) to capture secreted IFNγ. The captured IFNγ was detected with 0.5 μg/mL biotin-conjugated mouse anti-human IFNγ antibody and streptavidin-HRP (BD pharmingen, San Jose, Calif.). The assay was visualized with TMB peroxidase solution B (KPL, Gaithersburg, Md.) and read at OD450.

HLA-DR = experiment: HLA blocking of Pep-9-induced CD4+ T cell activation; type: cell-based, human
Procedure: The MHC […] inhibition assays: HLA specific mAbs or control isotype matched IgG were preincubated with peptide-pulsed DCs at concentration of 10 μg/mL for one hour at 4° C. Cells were washed with PBS, irradiated at 4500 rad and mixed with T cells at indicated ratios. To block HLA class I expression, tumor cells lines were pretreated with 10 μg/mL of anti-HLA-A,B,C antibodies (BD Pharmingen, San Jose, Calif.) for one hour at 4° C. Cells were washed with PBS and labeled with ^51Cr as indicated above. IFNγ production was determined by ELISA after 48 hour incubation as described (Schiavo et al., Blood 107(12):4597-605, 2006).
Next, to characterize HLA specificity, the CD4^+ T cell lines were stimulated with autologous DCs pulsed with Pep-9 in the presence of antibody that blocked HLA-DR, or HLA-DQ, or HLA-DP molecules. The stimulation of the SPANX-B-specific CD4^+ T cells was not affected by the presence of control antibody or antibodies that block HLA-DQ, or HLA-DP, or anti-MHC class I (FIGS. 4 A-C).

SPANX-B = experiment: DNA immunization of mice, serum ELISA on peptide-coated plates; type: in vivo; conditions: plates coated with peptide 5 μg/ml; FIG. 7
Procedure: Mice were intradermally immunized twice with 25 μg plasmid DNA constructs including MIP-3α-SPANX-B. Sera were tested for SPANX-B antibodies by ELISA assay in 96-well plates coated with the indicated peptides (5 μg/ml). […] The other was near the N-terminus, encoded by Pep-G1 (SEQ ID NO: 14) and Pep-2 (SEQ ID NO: 2) and Pep-3 (SEQ ID NO: 3).

[2] = tested on: murine anti-SPANX-B antibody; experiment: ELISA on peptide-coated plates with murine anti-SPANX-B antibody; type: binding; conditions: Ab from mice DNA immunized with SPANX-B-expressing plasmid; FIG. 1B
Procedure: FIGS. 1A-1F are digital images, a graph and a schematic diagram illustrating the specificity of antibody and expression of SPANX-B in human immortalized tumor cell lines. FIG. 1A is a digital image showing ANEA-I0117 antibody recognized SPANX-B expressed in mouse erythroleukemia RL5 cells. Western blotting results are shown with ANEA-I0117 anti-SPANX-B antibody on lysates of RL5 cells (2 μl, 5 μl and 10 μl, respectively) transiently transduced with plasmid expressing SPANX-B (SPANX-B). Control lysates were made from untransduced parental RL5 cells (Control). FIG. 1B is a graph showing murine anti-SPANX-B antibody, which was generated from mice DNA immunized with plasmid expressing SPANX-B, recognized unique SPANX-B-specific insert of SPANX-B (encoded in Pep-G1 and Pep-2 peptides), ELISA assay on plates coated with various peptides that are depicted in FIG. 1C. […] FIG. 1D is a digital image showing the expression of SPANX-B protein evaluated by Western blotting with ANEA-I0117 Ab (1:5000) in lysates of cell lines, such as HEK293 (HEK), Jurkat, CRL 7002, UACC1273, 938 Mel, CCRF-CEM (CEM), and normal human donor PBMC (upper panel). The blot was stripped and hybridized with anti-actin antibody (lower panel). FIGS. 1E and 1F are digital images obtained from an immunohistochemistry and immunofluorescent assay, respectively, of melanoma (UACC1273) and ovarian carcinoma (2008 and OVCAR3) cell lines. The cells were stained with ANEA-I0117 Ab (right and bottom panels in FIG. 1E and FIG. 1F, respectively); and control IgG (left and upper panels in FIG. 1E and FIG. 1F, respectively).
SPANX-B can be often found in the list of highly expressed genes in microarray study of human tumors, including hematological malignancies and breast cancer (see, for example, Minn et al., Nature 436(7050):518-24, 2005). To confirm this, expression was tested using two antibodies, a rabbit 3ANEA Ab and mouse SPANX-B Ab. […] The second SPANX-B Ab was produced from mice DNA immunized with SPANX-B-expressing plasmid. […] In contrast, it reacted with a second peptide Pep-2 that only represented unique for SPANX-B insert of Pep-G1 (FIGS. 1B and C).

[3] = tested on: SPANX-B-specific CD8^+ T cell lines; experiment: IFNγ secretion (ELISA) by CD8+ T cell lines stimulated with antigen-pulsed autologous DCs; type: cell-based, human; conditions: for IFNγ secretion by SPANX-B-specific CD8+ T cells on stimulation with pulsed DCs: irradiated autologous DCs, lines generated with SPANX-B protein, FIG. 5A
UACC1273 melanoma cells = experiment: CTL 6-hour 51Cr release assay on UACC1273; type: cell-based, human; conditions: SPANX-B-expressing, HLA-A2-positive target; FIGS. 6A-C
Procedure: (§1) CTL assay and HLA blocking experiments: Tumor cell lines (target cells, 2×10^6) were incubated in 200 μL of fetal bovine serum (FBS) with 200 μCi of Na2^51CrO4 (PerkinElmer, Billerica, Mass.) for 2 hours at 37° C. Cells were washed with RPMI three times and resuspended in cRPMI with 10% FBS at 1×10^5 cells/mL. CTL assay was performed in triplicate in 96-well round bottom plates with 1×10^4/well ^51Cr-labeled target cells. The target cells were co-cultured at indicated ratios with effector cells (peptide-specific CD8^+ T cells) for 6 hours. The specific ^51Cr-release is calculated using formula: ((test sample release−spontaneous release)/(maximum release−spontaneous release))×100). Maximum release is for the target cells alone lysed with 2% Triton X-100.

HEK293 cells = experiment: CTL 51Cr release assay on HEK293 cells pulsed with Pep-2; type: cell-based, human; conditions: FIGS. 6A-C; for lysis of HLA-A2-expressing HEK293 cells pulsed with Pep-2 by CD8+ T cell lines generated to the antigen: HEK-A2, pulsed with 1 μg/ml Pep-2; for lysis of HLA-A2-negative parental HEK293 cells by CD8+ T cell lines generated to the antigen: HEK
Procedure: as §1

[4] = tested on: primary human melanoma cells; experiment: CTL 51Cr release assay on primary human melanoma cells; type: cell-based; conditions: for lysis of HLA-A2-expressing primary melanoma tumors by CD8+ lines generated to the antigen: Tc526, Tc624 and Tc2492; for lysis of HLA-A2-negative primary melanoma tumors by CD8+ lines generated to the antigen: Tc2547 and Tc938, FIG. 6E
Procedure: as §1

RSAPCASAEVNE (Synthetic peptide Pep-9 Mod) [Pep-9-Mod, reference compound]
IFNγ secretion by SPANX-B-specific CD4+ T cell lines, fine mapping of the epitope [1]: did not respond

RSVPCESNEANE (Synthetic peptide Pep-9)
IFNγ secretion by SPANX-B-specific CD4+ T cell lines, fine mapping of the epitope [1]: able to activate the SPANX-B-specific CD4^+ T cell lines | HLA restriction of recognition by human CD4+ T cells (HLA-DR): HLA-DR-restricted fashion

ENRINPDQMEEEEFIEITTERPKK (Synthetic peptide Pep-8)
B cell epitope recognized by sera of immunized mice (ELISA) (SPANX-B): Immunodominant B cell epitopes

KRSVPCESNEANEANEANKTM (Synthetic peptide Pep-G1)
IFNγ secretion by CD4+ T cell lines on stimulation with pulsed DCs [1]: activated the CD4^+ T cell lines to secrete IFNγ | IFNγ secretion by SPANX-B-specific CD4+ T cell line [1]: can be also activated to secrete IFNγ | generation of SPANX-B-specific CD4+ T cell lines using the peptide [1]: readily generated | recognition of peptide by mouse SPANX-B Ab (ELISA) [2]: preferentially recognized | B cell epitope recognized by sera of immunized mice (ELISA) (SPANX-B): Immunodominant B cell epitopes

RSVPCESNEVNETMPETPTGDSDP (Synthetic peptide Pep-5)
IFNγ secretion by CD4+ T cell lines on stimulation with pulsed DCs [1]: activated the CD4^+ T cell lines to secrete IFNγ | IFNγ secretion by SPANX-B-specific CD4+ T cell line [1]: can be also activated to secrete IFNγ | generation of SPANX-B-specific CD4+ T cell lines using the peptide [1]: readily generated | recognition of peptide by mouse SPANX-B Ab (ELISA) [2]: failed to recognize

ANEANEANKTMPETPTGDSDP (Synthetic peptide Pep-G2)
IFNγ secretion by CD4+ T cell lines on stimulation with pulsed DCs [1]: failed to respond | recognition of peptide by mouse SPANX-B Ab (ELISA) [2]: but not other region-specific peptides

LVVRYRRNV (Synthetic peptide Pep-4)
recognition of SPANX-B protein-pretreated DCs by CD8+ T cells generated with peptide-pulsed DCs [3]: also recognized SPANX-B protein-pretreated DCs | IFNγ secretion by SPANX-B-specific CD8+ T cells on stimulation with pulsed DCs [3]: secreted IFNγ | lysis of UACC1273 melanoma cells by CD8+ T cell lines generated to the antigen (UACC1273 melanoma cells): killed UACC1273 melanoma cells | lysis of HLA-A2-expressing HEK293 cells pulsed with Pep-2 by CD8+ T cell lines generated to the antigen (HEK293 cells): lysed HLA-A2-expressing HEK293 cells that were pulsed with Pep-2 | lysis of HLA-A2-negative parental HEK293 cells by CD8+ T cell lines generated to the antigen (HEK293 cells): did not kill | lysis of HLA-A2-expressing primary melanoma tumors by CD8+ lines generated to the antigen [4]: recognized and lysed | lysis of HLA-A2-negative primary melanoma tumors by CD8+ lines generated to the antigen [4]: not affected

ALWFRNHFVFGGGTK (Synthetic peptide MOPC (9)) [control murine class II peptide, reference compound]
IFNγ secretion by CD4+ T cell lines on stimulation with pulsed DCs [1]: failed to respond

QPAPKKMKTSESSTILVVRYRRNV (Synthetic peptide Pep-6)
IFNγ secretion by CD4+ T cell lines on stimulation with pulsed DCs [1]: failed to respond | recognition of peptide by mouse SPANX-B Ab (ELISA) [2]: but not other region-specific peptides

GQQSSVRRL (Synthetic peptide Pep-3)
recognition of peptide by mouse SPANX-B Ab (ELISA) [2]: but not other region-specific peptides | B cell epitope recognized by sera of immunized mice (ELISA) (SPANX-B): Immunodominant B cell epitopes

KRTSPEELVNDHARENRINPDQME (Synthetic peptide Pep-7)
B cell epitope recognized by sera of immunized mice (ELISA) (SPANX-B): Immunodominant B cell epitopes

B1: SPANX-B protein: Recombinant SPANX-B protein fused with maltose binding protein (MBP), produced and purified from E. coli (protein)
chain: MGQQSSVRRLKRSVPCESNEANEANEANKTMPETPTGDSDPQPAPKKMKTSESSTILVVRYRRNVKRTSPEELLNDHARENRINPDQMEEEEFIEITTERPKK
IFNγ secretion by CD4+ T cell lines on stimulation with pulsed DCs [1]: specifically recognized SPANX-B-treated DCs | SPANX-B-specific CD8+ T cell lines generated, donors ([3]; HLA-A2-positive peripheral blood CD8+ T cells, DCs incubated with SPANX-B protein): 3/3 | IFNγ secretion by SPANX-B-specific CD8+ T cells on stimulation with pulsed DCs [3]: secreted IFNγ | lysis of UACC1273 melanoma cells by CD8+ T cell lines generated to the antigen (UACC1273 melanoma cells): killed UACC1273 melanoma cells | lysis of HLA-A2-expressing HEK293 cells pulsed with Pep-2 by CD8+ T cell lines generated to the antigen (HEK293 cells): lysed HLA-A2-expressing HEK293 cells that were pulsed with Pep-2 | lysis of HLA-A2-negative parental HEK293 cells by CD8+ T cell lines generated to the antigen (HEK293 cells): did not kill | lysis of HLA-A2-expressing primary melanoma tumors by CD8+ lines generated to the antigen [4]: recognized and lysed | lysis of HLA-A2-negative primary melanoma tumors by CD8+ lines generated to the antigen [4]: not affected
